Results taken from patent publication US4363816A, “Tricyclic pyrroles, their compositions and their use” (BYK Gulden Lomberg Chemische Fabrik Gesellschaft mit …, priority 1981, dated 1982).
Read-outs that look alike come from different tables or passages of the source.

Legend:
gastric secretion = experiment: Inhibition of gastric secretion in rats; assay type: in vivo; conditions: 4 hours after administration of the antiulcerogenic ED50
Procedure: (§1) The effect of the compounds according to the invention on the formation, in rats, of gastric ulcers provoked by a pylorus ligature and 10 mg/kg of acetylsalicylic acid and on the inhibition of gastric secretion in rats is shown in the following table:
^(+) % inhibition of the gastric secretion (in %) 4 hours after
administration of the antiulcerogenic ED50
(§2) The antiulcerogenic action was tested in accordance with the method using the so-called Shay rat: Rats (female, 180 to 200 g, 4 animals per cage on a high grid) which had been fasted for 24 hours were subjected to ulcer provocation by pylorus ligature (under diethyl ether anaesthesia) and oral administration of 100 mg/10 ml/kg of acetylsalicyclic acid. The substances to be tested are administered orally (10 ml/kg) 1 hour before the pylorus ligature. The wound is closed by means of Michel clamps. 4 hours thereafter, the animals are killed under ether anaesthesia by atlas dislocation, and the stomach is removed. The stomach is opened longitudinally and fixed to a cork tile after the amount of gastric juice secreted (volume) has been determined, the number and size (=diameter) of ulcers present are determined with a stereomicroscope with 10-fold magnification. The product of the degree of severity (according to the following rating scale) and the number of ulcers serves as the individual ulcer index.

[1] = system: gastric ulcers provoked by a pylorus ligature and acetylsalicylic acid; experiment: Antiulcerogenic action (protective action on the stomach), Shay rat: pylorus ligature plus oral acetylsalicylic acid; assay type: in vivo, rats (female); conditions: for ED50: Rattus norvegicus, po, read-out: Protective action on the stomach, ED50
Procedure: as §1
(§3) compared with the control group
(§4) TQ = therapeutic quotient LD50 /ED50
as §2
(§5) ulcer diameter 0.1-1.4 mm 1
(§6) The reduction in the average ulcer index of each treated group compared with that of the control group (=100%) serves as a measure of the antiulcerogenic effect. The ED50 designates the dose which reduces the average ulcer index by 50%.

[2] = Determination of toxicity (LD50, intravenous, mice); conditions: mouse, in vivo; intravenous administration to mice; observation 7 days; dose at which 50% of the animals die
Procedure: LD50 = dose at which 50% of the animals die
The toxicity investigations are carried out on female NMRI mice (body weight: 23 to 30 g). The animals (5 animals per dose) receive feed and water ad libitum. Various doses of the substances are administered intravenously (injection time: 1 minute). The observation period is 7 days. The LD50 (the dose at which 50% of the animals die) is determined by means of linear regression.

[3] = Antiulcerogenic action (protective action on the stomach), Shay rat: pylorus ligature plus oral acetylsalicylic acid; assay type: in vivo, rats (female); conditions: rat, in vivo; LD50 i.v. mice / ED50 p.o. rats; read-out: TQ LD50/ED50 (therapeutic quotient)
Procedure: as §1, §3, §4, §2, §5, §6

| SMILES | Gastric Secretion, % inhibition in rats (gastric secretion) | ED50 [1] | antiulcerogenic action, dose/action curve (in words) ([1]; Shay rat, up to 300 mg/kg for compound 1) | LD50 at 168 h [2] | therapeutic quotient (LD50/ED50) [3] | ED50 ([1]; peroral administration to rats 1 hour before pylorus ligature, dose which reduces the ulcer index by 50% compared with the control group) |
| --- | --- | --- | --- | --- | --- | --- |
| CC1(C)[C@@H](OC(=O)CCC(=O)O)CC[C@]2(C)[C@H]3C(=O)C=C4[C@@H]5C[C@@](C)(C(=O)O)CC[C@]5(C)CC[C@@]4(C)[C@]3(C)CC[C@@H]12 [Serial No. 1, Carbenoxolone, reference compound] | 7% | 70 mg/kg | the dose/action curve is then very severely flattened so that no substantial increase in the antiulcerogenic action can be achieved even at 300 mg/kg |  |  |  |
| CCN(CC)CC(=O)N1c2ccccc2NC(=O)c2c1c(C)cn2C [Serial No. 5, 4-Diethylaminoacetyl-1,3-dimethyl-1,4,9,10-tetrahydropyrrolo[3,2-b][1,5]benzodiazepin-10-one] | 20% | 6 mg/kg |  | 105 mg/kg | 17.5 |  |
| Cc1cn(C)c2c1N(C(=O)CN(C)C)c1ccccc1NC2=O [Serial No. 6, 1,3-Dimethyl-4-dimethylaminoacetyl-1,4,9,10-tetrahydropyrrolo[3,2-b][1,5]benzodiazepin-10-one] | 10% |  |  |  |  | 6.5 mg/kg |
| CCCN(CCC)CC(=O)N1c2ccccc2NC(=O)c2c1c(C)cn2C [Serial No. 7, 1,3-Dimethyl-4-di-(n-propyl)aminoacetyl-1,4,9,10-tetrahydropyrrolo[3,2-b][1,5]benzodiazepin-10-one] | 10% | 6.5 mg/kg |  | 110 mg/kg | 16.9 |  |
| Cc1cn(C)c2c1N(C(=O)CN1CCN(C)CC1)c1ccccc1NC2=O [compound 2] | 25% | 1.4 mg/kg |  | 100 mg/kg | 71.4 |  |
| Cc1cn(C)c2c1N(C(=O)CN1CCCCC1)c1ccccc1NC2=O [compound 3] | 3% | 4.5 mg/kg |  | 95 mg/kg | 21.1 |  |
| Cc1cn(C)c2c1N(C(=O)CN1CCCC1)c1ccccc1NC2=O [compound 4] | 0% | 2.2 mg/kg |  | 100 mg/kg | 45.5 |  |
| CCNCC(=O)N1c2ccccc2NC(=O)c2c1c(C)cn2C [compound 8] | 20% | 5.5 mg/kg |  | 140 mg/kg | 25.5 |  |
| Cc1cn(C)c2c1N(C(=O)CCN1CCCC1)c1ccccc1NC2=O [compound 9] | 25% | 6 mg/kg |  | 70 mg/kg | 11.7 |  |
| Cc1cn(C)c2c1N(C(=O)CCN(C)C)c1ccccc1NC2=O [compound 10] | 21% | 4.5 mg/kg |  | 120 mg/kg | 26.7 |  |
